# Results as given in patent publication US7998952B2, “Thiolactams and uses thereof” (Millennium Pharmaceuticals, Inc., priority 2008, dated 2011).
# Molecular target: T1, recombinant human PLK1[2-369]T210D (Homo sapiens, UniProt P53350, T210D)
# T1 construct: recombinant human PLK1[2-369]T210D; Smt (SUMO) fusion partner (N, cleaved yes); host or cells: E. coli
# Experiment: PLK1 DELFIA Kinase Assay
# Assay type: biochemical
# Settings: 50 μM ATP, 2 μM peptide substrate, 0.3 nM enzyme, 90 minutes at room temperature
# Summary of the method: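 E. coli-expressed human PLK1, cleaved from an Smt fusion after Ni2+ purification, is reacted with or without inhibitor for 90 minutes at room temperature and stopped with EDTA. Product is captured on Neutravidin plates and quantified by europium DELFIA time-resolved fluorescence.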
# T1 sequence (P53350 2-369 T210D): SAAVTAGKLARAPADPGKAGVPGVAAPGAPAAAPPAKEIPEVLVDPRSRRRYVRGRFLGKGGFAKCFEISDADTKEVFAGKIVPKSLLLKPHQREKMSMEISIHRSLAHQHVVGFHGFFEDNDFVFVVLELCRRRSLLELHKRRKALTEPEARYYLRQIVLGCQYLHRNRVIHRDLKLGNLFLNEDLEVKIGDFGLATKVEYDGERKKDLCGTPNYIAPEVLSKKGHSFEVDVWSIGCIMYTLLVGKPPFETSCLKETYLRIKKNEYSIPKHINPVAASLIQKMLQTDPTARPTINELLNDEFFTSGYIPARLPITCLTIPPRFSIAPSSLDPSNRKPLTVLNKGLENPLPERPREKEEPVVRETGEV
row,Compound,IC50 [nM]
1,"Cc1ncc(N2CCN(C)CC2)cc1Nc1ncc2c(n1)-c1ccc(Cl)cc1NC(=S)C2 [Compound I-103, 9-chloro-2-{[2-methyl-5-(4-methylpiperazin-1-yl)pyridin-3-yl]amino}-5,7-dihydro-6H-pyrimido[5,4-d][1]benzazepine-6-thione]",< 5
2,"CN(C)CCc1cncc(Nc2ncc3c(n2)-c2ccc(Cl)cc2NC(=S)C3)c1 [Compound I-104, 9-chloro-2-({5-[2-(dimethylamino)ethyl]pyridin-3-yl}amino)-5,7-dihydro-6H-pyrimido[5,4-d][1]benzazepine-6-thione]",< 5
3,"Cc1nc(N2CCCC2)ccc1Nc1ncc2c(n1)-c1ccc(Cl)cc1NC(=S)C2 [Compound I-106, 9-chloro-2-[(2-methyl-6-pyrrolidin-1-ylpyridin-3-yl)amino]-5,7-dihydro-6H-pyrimido[5,4-d][1]benzazepine-6-thione]",< 5
4,"CN1CCN(c2cncc(Nc3ncc4c(n3)-c3ccc(Cl)cc3NC(=S)C4)c2)CC1 [Compound I-107, 9-chloro-2-{[5-(4-methylpiperazin-1-yl)pyridin-3-yl]amino}-5,7-dihydro-6H-pyrimido[5,4-d][1]benzazepine-6-thione]",< 5
5,"Cc1nc(N2CCOCC2)ccc1Nc1ncc2c(n1)-c1ccc(Cl)cc1NC(=S)C2 [Compound I-109, 9-chloro-2-[(2-methyl-6-morpholin-4-ylpyridin-3-yl)amino]-5,7-dihydro-6H-pyrimido[5,4-d][1]benzazepine-6-thione]",< 5
6,"Cc1nc(N(C)CCN(C)C)ccc1Nc1ncc2c(n1)-c1ccc(Cl)cc1NC(=S)C2 [Compound I-112, 9-chloro-2-({6-[[2-(dimethylamino)ethyl](methyl)amino]-2-methylpyridin-3-yl}amino)-5,7-dihydro-6H-pyrimido[5,4-d][1]benzazepine-6-thione]",5 to 25
7,"Cc1nc(C(=O)NC2CCN(C)CC2)ccc1Nc1ncc2c(n1)-c1ccc(Cl)cc1NC(=S)C2 [Compound I-116, 5-[(9-chloro-6-thioxo-6,7-dihydro-5H-pyrimido[5,4-d][1]benzazepin-2-yl)amino]-6-methyl-N-(1-methylpiperidin-4-yl)pyridine-2-carboxamide]",5 to 25
8,"Cc1ncc(CCCN(C)C)cc1Nc1ncc2c(n1)-c1cc(CCCN(C)C)c(Cl)cc1NC(=S)C2 [Compound I-120, 9-chloro-10-[3-(dimethylamino)propyl]-2-({5-[3-(dimethylamino)propyl]-2-methylpyridin-3-yl}amino)-5,7-dihydro-6H-pyrimido[5,4-d][1]benzazepine-6-thione]",> 25

# Continued, values first:
row,IC50 [nM],Compound
1,< 5,"Cc1nc(N(C)C2CCN(C)CC2)ccc1Nc1ncc2c(n1)-c1ccc(Cl)cc1NC(=S)C2 [Compound I-105, 9-chloro-2-({2-methyl-6-[methyl(1-methylpiperidin-4-yl)amino]pyridin-3-yl}amino)-5,7-dihydro-6H-pyrimido[5,4-d][1]benzazepine-6-thione]"
2,5 to 25,"Cc1nc(N2CCCC2)ccc1Nc1ncc2c(n1)-c1ccc(C(F)(F)F)cc1NC(=S)C2 [Compound I-110, 2-[(2-methyl-6-pyrrolidin-1-ylpyridin-3-yl)amino]-9-(trifluoromethyl)-5,7-dihydro-6H-pyrimido[5,4-d][1]benzazepine-6-thione]"
3,< 5,"Cc1nc2c(cc1Nc1ncc3c(n1)-c1ccc(C(F)(F)F)cc1NC(=S)C3)C[C@H](N(C)C)CC2 [Compound I-113, 2-{[(6R)-6-(dimethylamino)-2-methyl-5,6,7,8-tetrahydroquinolin-3-yl]amino}-9-(trifluoromethyl)-5,7-dihydro-6H-pyrimido[5,4-d][1]benzazepine-6-thione]"
4,< 5,Cc1nc2c(cc1Nc1ncc3c(n1)-c1ccc(C(F)(F)F)cc1NC(=S)C3)C[C@@H](N(C)C)CC2 [Compound I-114]
5,< 5,"Cc1nc2c(cc1Nc1ncc3c(n1)-c1ccc(C(F)(F)F)cc1NC(=S)C3)CCCN2 [Compound I-115, 2-[(2-methyl-5,6,7,8-tetrahydro-1,8-naphthyridin-3-yl)amino]-9-(trifluoromethyl)-5,7-dihydro-6H-pyrimido[5,4-d][1]benzazepine-6-thione]"
6,5 to 25,"Cc1ncc(CCCN(C)C)cc1Nc1ncc2c(n1)-c1cc(C(F)(F)F)ccc1NC(=S)C2 [Compound I-117, 2-({5-[3-(dimethylamino)propyl]-2-methylpyridin-3-yl}amino)-10-(trifluoromethyl)-5,7-dihydro-6H-pyrimido[5,4-d][1]benzazepine-6-thione]"
7,5 to 25,"Cc1nc(C(=O)NCCN(C)C)ccc1Nc1ncc2c(n1)-c1ccc(C(F)(F)F)cc1NC(=S)C2 [Compound I-118, N-[2-(dimethylamino)ethyl]-6-methyl-5-{[6-thioxo-9-(trifluoromethyl)-6,7-dihydro-5H-pyrimido[5,4-d][1]benzazepin-2-yl]amino}pyridine-2-carboxamide]"
8,5 to 25,"Cc1nc(NC(=O)CN(C)C)ccc1Nc1ncc2c(n1)-c1ccc(C(F)(F)F)cc1NC(=S)C2 [Compound I-121, 2-(dimethylamino)-N-(6-methyl-5-{[6-thioxo-9-(trifluoromethyl)-6,7-dihydro-5H-pyrimido[5,4-d][1]benzazepin-2-yl]amino}pyridin-2-yl)acetamide]"
9,5 to 25,"Cc1nc2c(cc1Nc1ncc3c(n1)-c1ccc(C(F)(F)F)cc1NC(=S)C3)CCC(N(C)C)C2 (stereo not drawn) [Compound I-122, 2-{[7-(dimethylamino)-2-methyl-5,6,7,8-tetrahydroquinolin-3-yl]amino}-9-(trifluoromethyl)-5,7-dihydro-6H-pyrimido[5,4-d][1]benzazepine-6-thione]"
10,5 to 25,"Cc1nc(C(=O)NC2CCN(C)CC2)ccc1Nc1ncc2c(n1)-c1ccc(C(F)(F)F)cc1NC(=S)C2 [Compound I-123, 6-methyl-N-(1-methylpiperidin-4-yl)-5-{[6-thioxo-9-(trifluoromethyl)-6,7-dihydro-5H-pyrimido[5,4-d][1]benzazepin-2-yl]amino}pyridine-2-carboxamide]"
